Experimental data taken from patent US11666590B2, “Pharmaceutical composition, methods for treating and uses thereof” (Boehringer Ingelheim International GmbH, priority 2013, dated 2023).

How the values were obtained:
[1] = metformin on its own, in the diabetic; cited from earlier work
[2] = Phase III trial of empagliflozin as add-on to existing therapy for 52 weeks in patients with T2DM and renal impairment: eGFR (MDRD) over time; type: in vivo, human; conditions: for End-of treatment eGFR Mean / End-of treatment eGFR Mean change from baseline / eGFR at week 52 (in words): week 52
From the text: (§1) For the purpose of the present invention, the estimated glomerular filtration rate (eGFR) is derived from the serum creatinine (SCr) value based on the MDRD formula below: eGFR (mL/min/1.73m2)=175×[SCr (μmol/L)/88.4]-1.154×[age]-0.203×[0.742 if patient is female]×[1.212 if patient is of African origin]
A Phase III trial investigated the efficacy and safety of empagliflozin (EMPA) as add-on to existing therapy for 52 weeks in patients with T2DM and RI. Patients with mild RI (eGFR [MDRD equation]≥60 to<90 mL/min/1.73 m^2) received EMPA 10 or 25 mg qd or placebo (PBO). Patients with moderate RI (eGFR≥30 to<60 mL/min/1.73 m^2) received EMPA 25 mg qd or PBO. Patients with severe RI (eGFR[…] to<30 mL/min/1.73 m^2) received EMPA 25 mg qd or PBO.

[3] = Phase III trial of empagliflozin once daily over 12 weeks in hypertensive patients with T2DM: eGFR (MDRD) over time; type: in vivo, human
Description: as §1
A Phase III trial investigated the efficacy and safety of empagliflozin (EMPA) administered orally, once daily over 12 weeks in hypertensive patients with T2DM (EMPA 10 or 25 mg, placebo (PBO)). Patients with a systolic blood pressure (SBP) of 130 to 159 mmHg and a diastolic blood pressure (DSP) of 80 to 99 mmHg were included in the trial.

[4] = Phase IIb trial of empagliflozin once daily over 78 weeks in patients with T2DM receiving basal insulin: eGFR (MDRD) over time; type: in vivo, human
Description: as §1
A Phase IIb trial investigated the efficacy and safety of empagliflozin (EMPA 10 or 25 mg, placebo (PBO)) administered orally, once daily over 78 weeks in patients with T2DM receiving treatment with basal insulin (glargine, detemir, or NPH insulin only).

[5] = 52 week renal impairment study: urine albumin/creatinine ratio (UACR) by baseline UACR category; type: in vivo, human; conditions: for Frequency of patients, last value on-treatment Macroalbuminuria, % / Frequency of patients, last value on-treatment Microalbuminuria, % / Frequency of patients, last value on-treatment Normal, % / Urine albumin-to-creatinine ratio, change from baseline, Mean: week 52; for mean urine albumin/creatinine ratio values (in words): patients with microalbuminuria at baseline
Description: In a dedicated 52 week renal impairment study, patients were categorised based on their urine albumin/creatinine ratio (UACR) values at baseline, and 3 categories of patients were distinguished: patients with normal urine albumin/creatinine ratio values (<30 mg/g), patients with microalbuminuria (30 to<300 mg/g) and patients with macroalbuminurea (≥300 mg/g).
Categories for urine albumin-to-creatinine ratio: normal:<30 mg/g, microalbuminuria 30 to<300 mg/g, macroalbuminuria:≥300 mg/g

[6] = mild renal impairment, Empa 10 mg qd, 3-week follow up visit
[7] = mild renal impairment, Empa 10 mg qd
[8] = mild renal impairment, Empa 25 mg qd, 3-week follow up visit
[9] = mild renal impairment, Empa 25 mg qd
[10] = moderate renal impairment, Empa 25 mg qd, 3-week follow-up visit
[11] = moderate renal impairment, Empa 25 mg qd
[12] = severe renal impairment, Empa 25 mg qd, 3-week follow-up visit
[13] = severe renal impairment, Empa 25 mg qd
[14] = Empa 10 mg once daily, 2-week follow up visit
[15] = Empa 25 mg once daily, 2-week follow up visit
[16] = T2DM on basal insulin, Empa 10 mg once daily, 4-week follow up visit
[17] = T2DM on basal insulin, Empa 10 mg once daily
[18] = T2DM on basal insulin, Empa 25 mg once daily, 4-week follow up visit
[19] = T2DM on basal insulin, Empa 25 mg once daily
[20] = Empa 10 mg, baseline Macroalbuminuria
[21] = Empa 10 mg, baseline Microalbuminuria
[22] = Empa 10 mg, baseline UACR Normal
[23] = Empa 25 mg, baseline Macroalbuminuria
[24] = Empa 25 mg, baseline Microalbuminuria
[25] = Empa 25 mg, baseline UACR Normal

CN(C)C(=N)N=C(N)N [metformin]
average improvement in the HbA1c value [1]: 1.0-1.5%

OC[C@H]1O[C@@H](c2ccc(Cl)c(Cc3ccc(O[C@H]4CCOC4)cc3)c2)[C@H](O)[C@@H](O)[C@@H]1O [Empa, 1-chloro-4-(β-D-glucopyranos-1-yl)-244-((S)-tetrahydrofuran-3-yloxy)-benzylFbenzene]
Follow-up eGFR Mean [2, 6]: 69.84 mL/min/1.73 m^2 | Follow-up eGFR Mean change from baseline [2, 6]: 2.06 mL/min/1.73 m^2 | Baseline eGFR Mean [2, 7]: 68.42 mL/min/1.73 m^2 | End-of treatment eGFR Mean [2, 7]: 68.07 mL/min/1.73 m^2 | End-of treatment eGFR Mean change from baseline [2, 7]: −0.76 mL/min/1.73 m^2 | Follow-up eGFR Mean [2, 8]: 73.38 mL/min/1.73 m^2 | Follow-up eGFR Mean change from baseline [2, 8]: 1.28 mL/min/1.73 m^2 | Baseline eGFR Mean [2, 9]: 72.01 mL/min/1.73 m^2 | End-of treatment eGFR Mean [2, 9]: 66.25 mL/min/1.73 m^2 | End-of treatment eGFR Mean change from baseline [2, 9]: −5.67 mL/min/1.73 m^2 | mean eGFR at follow up (in words) ([2]; mild renal impairment, empagliflozin 10 and 25 mg, 3-week follow up visit): increased to a value slightly above baseline | eGFR at week 52 (in words) ([2]; mild renal impairment, empagliflozin 10 and 25 mg): small decrease in eGFR | Follow-up eGFR Mean [2, 10]: 45.39 mL/min/1.73 m^2 | Follow-up eGFR Mean change from baseline [2, 10]: 1.48 mL/min/1.73 m^2 | Baseline eGFR Mean [2, 11]: 43.84 mL/min/1.73 m^2 | End-of treatment eGFR Mean [2, 11]: 40.58 mL/min/1.73 m^2 | End-of treatment eGFR Mean change from baseline [2, 11]: −3.55 mL/min/1.73 m^2 | mean eGFR at follow-up (in words) ([2]; moderate renal impairment, empagliflozin 25 mg, 3-week follow-up visit): increased to a value slightly above baseline | eGFR at week 52 (in words) ([2]; moderate renal impairment, empagliflozin 25 mg): small decrease in eGFR | Follow-up eGFR Mean [2, 12]: 23.63 mL/min/1.73 m^2 | Follow-up eGFR Mean change from baseline [2, 12]: −0.59 mL/min/1.73 m^2 | Baseline eGFR Mean [2, 13]: 24.22 mL/min/1.73 m^2 | End-of treatment eGFR Mean [2, 13]: 20.23 mL/min/1.73 m^2 | End-of treatment eGFR Mean change from baseline [2, 13]: −3.98 mL/min/1.73 m^2 | mean eGFR at follow-up (in words) ([2]; severe renal impairment, empagliflozin 25 mg, 3-week follow-up visit): increased to a value slightly below baseline | eGFR at week 52 (in words) ([2]; severe renal impairment, empagliflozin 25 mg): small decrease in eGFR | Follow-up eGFR Mean [3, 14]: 86.25 mL/min/1.73 m^2 | Follow-up eGFR Mean change from baseline [3, 14]: 3.06 mL/min/1.73 m^2 | Follow-up eGFR Mean change from last value on treatment [3, 14]: 3.32 mL/min/1.73 m^2 | Baseline eGFR Mean ([3]; Empa 10 mg once daily): 83.01 mL/min/1.73 m^2 | Last value on treatment eGFR Mean ([3]; Empa 10 mg once daily, week 12): 82.70 mL/min/1.73 m^2 | Last value on treatment eGFR Mean change from baseline ([3]; Empa 10 mg once daily, week 12): −0.20 mL/min/1.73 m^2 | Follow-up eGFR Mean [3, 15]: 86.60 mL/min/1.73 m^2 | Follow-up eGFR Mean change from baseline [3, 15]: 2.75 mL/min/1.73 m^2 | Follow-up eGFR Mean change from last value on treatment [3, 15]: 5.54 mL/min/1.73 m^2 | Baseline eGFR Mean ([3]; Empa 25 mg once daily): 83.97 mL/min/1.73 m^2 | Last value on treatment eGFR Mean ([3]; Empa 25 mg once daily, week 12): 81.24 mL/min/1.73 m^2 | Last value on treatment eGFR Mean change from baseline ([3]; Empa 25 mg once daily, week 12): −2.60 mL/min/1.73 m^2 | mean eGFR at follow up (in words) ([3]; empagliflozin 10 and 25 mg, 2-week follow up visit): increased to a value slightly above baseline | eGFR at week 12 (in words) ([3]; empagliflozin 10 and 25 mg, week 12): small decrease in eGFR | eGFR at follow-up Mean [4, 16]: 83.74 | eGFR at follow-up Mean change from baseline [4, 16]: −1.88 | Baseline eGFR Mean [4, 17]: 85.01 | Week 18 eGFR Mean [4, 17]: 80.37 | Week 18 eGFR Mean change from baseline [4, 17]: −4.98 | Week 54 eGFR Mean [4, 17]: 82.55 | Week 54 eGFR Mean change from baseline [4, 17]: −5.68 | Week 78 eGFR Mean [4, 17]: 81.86 | Week 78 eGFR Mean change from baseline [4, 17]: −5.52 | eGFR at follow-up Mean [4, 18]: 81.35 | eGFR at follow-up Mean change from baseline [4, 18]: −0.79 | Baseline eGFR Mean [4, 19]: 82.88 | Week 18 eGFR Mean [4, 19]: 79.11 | Week 18 eGFR Mean change from baseline [4, 19]: −3.48 | Week 54 eGFR Mean [4, 19]: 77.12 | Week 54 eGFR Mean change from baseline [4, 19]: −4.76 | Week 78 eGFR Mean [4, 19]: 77.21 | Week 78 eGFR Mean change from baseline [4, 19]: −5.64 | mean eGFR at follow up (in words) ([4]; T2DM on basal insulin, empagliflozin 10 and 25 mg, 4-week follow up visit): increased to a value slightly below baseline | eGFR on treatment (in words) ([4]; empagliflozin 10 and 25 mg, 78 weeks): small decrease in eGFR | Frequency of patients, last value on-treatment Macroalbuminuria, % [5, 20]: (33.3) % | Frequency of patients, last value on-treatment Microalbuminuria, % [5, 20]: (55.6) % | Frequency of patients, last value on-treatment Normal, % [5, 20]: (11.1) % | Frequency of patients, last value on-treatment Macroalbuminuria, % [5, 21]: (11.1) % | Frequency of patients, last value on-treatment Microalbuminuria, % [5, 21]: (61.1) % | Frequency of patients, last value on-treatment Normal, % [5, 21]: (27.8) % | Frequency of patients, last value on-treatment Microalbuminuria, % [5, 22]: (10.6) % | Frequency of patients, last value on-treatment Normal, % [5, 22]: (89.4) % | Frequency of patients, last value on-treatment Macroalbuminuria, % [5, 23]: (67.1) % | Frequency of patients, last value on-treatment Microalbuminuria, % [5, 23]: (30.1) % | Frequency of patients, last value on-treatment Normal, % [5, 23]: (2.7) % | Frequency of patients, last value on-treatment Macroalbuminuria, % [5, 24]: (3.8) % | Frequency of patients, last value on-treatment Microalbuminuria, % [5, 24]: (72.2) % | Frequency of patients, last value on-treatment Normal, % [5, 24]: (24.1) % | Frequency of patients, last value on-treatment Microalbuminuria, % [5, 25]: (10.6) % | Frequency of patients, last value on-treatment Normal, % [5, 25]: (89.4) % | Urine albumin-to-creatinine ratio, change from baseline, Mean ([5]; Empagliflozin 10 mg, patients Normal (<30 mg/g) at baseline): 4.0 mg/g | Urine albumin-to-creatinine ratio, change from baseline, Mean ([5]; Empagliflozin 10 mg, patients with Macroalbuminuria at baseline): -716.3 mg/g | Urine albumin-to-creatinine ratio, change from baseline, Mean ([5]; Empagliflozin 10 mg, patients with Microalbuminuria at baseline): 7.4 mg/g | Urine albumin-to-creatinine ratio, change from baseline, Mean ([5]; Empagliflozin 25 mg, patients Normal (<30 mg/g) at baseline): 6.0 mg/g | Urine albumin-to-creatinine ratio, change from baseline, Mean ([5]; Empagliflozin 25 mg, patients with Macroalbuminuria at baseline): -799.9 mg/g | Urine albumin-to-creatinine ratio, change from baseline, Mean ([5]; Empagliflozin 25 mg, patients with Microalbuminuria at baseline): -39.4 mg/g | Shifts between UACR categories from macro- or microalbuminuria towards normal and from macro- to microalbuminuria, versus placebo (in words) ([5]; baseline to end of treatment, empagliflozin treatment groups): higher frequency | mean urine albumin/creatinine ratio (in words) ([5]; patients with macroalbuminuria at baseline, empagliflozin groups): decrease in mean urine albumin/creatinine ratio | mean urine albumin/creatinine ratio values (in words) ([5]; empagliflozin 10 mg): remained nearly unchanged | mean urine albumin/creatinine ratio values (in words) ([5]; empagliflozin 25 mg): decreased
